According to patent publication US20210154210A1, “Ophthalmic Formulations and Uses Thereof” (priority 2018, published 2021):

Test system: corneal endothelial cells
Experiment: Corneal endothelial cell counting by specular microscopy
Format: in vivo, rabbits
Details: for higher cell density compared to negative control group / higher cell density compared to placebo group: 25 ng/mL (group B); for degeneration rate / effect on slowing down and stopping apoptosis and/or autophagy: 25 ng/mL
From the text: All experiments were designed and carried out in a randomized, double blind manner using placebos. Rabbits were housed for one week prior to the study, fed on standard laboratory food and allowed free access to water in a room at standard temperature and humidity conditions in a 12-h light/12-h dark cycle.
Counting Corneal Cell number:
Any excess was discarded, and a fresh batch prepared for the next 15-days. Effects of the eye drop on corneal endothelium as well as cell numbers and shapes were observed by means of specular microscopy (NIDEK-CEM 530, Japan) at the end of months 0, 1, 3 and 6. Rabbits were euthanatized by an intravenous injection of Tanax (0.3 mL/kg). Vitreous (0.2 mL) was aspirated with a 25-gauge needle attached to a 5-mL disposable syringe, driven at 3.0 mm from the limbus, and guided toward the center of the eyeball, taking care to avoid bleeding when the needle was introduced (vitreous samples were stored at −80° C. until the analysis). Eye tissue was fixed with 4% formaldehyde and embedded in paraffin for histopathological assessment. The individual values for three replicates were determined and the mean values were reported.
All analyses were carried out using GraphPad Prism 5.0 (GraphPad Software, San Diego, Calif., USA). Differences were considered to be significant at a level of P 0.001.

[1] = compared to the negative control group

For `CC(C)(O)[C@@H]1CC[C@](C)([C@H]2[C@@H](O)C[C@@]3(C)[C@@H]4C[C@H](O)[C@H]5C(C)(C)[C@@H](O)CC[C@@]56C[C@@]46CC[C@]23C)O1` [cycloastragenol, Cycloastragenol], the “higher cell density compared to negative control group” value (month 1) was “about 4%”, the “higher cell density compared to placebo group” value (month 1) was “about 4%” and the “higher cell density compared to negative control group” value (month 3) was about 18%. The “higher cell density compared to placebo group” value (month 3) was about 18%, the “higher cell density compared to negative control group” value (month 6) was about 19% and the “higher cell density compared to placebo group” value (month 6) was about 20%. For the same compound, the degeneration rate [1] was 0%, the “effect on slowing down and stopping apoptosis and/or autophagy” value [1] was 100% and the degeneration rate (compared to the placebo group) was 0%. For the same compound, the “effect on slowing down and stopping apoptosis and/or autophagy” value (compared to the placebo group) was 100%.
